Source: ChEMBL document CHEMBL5512615, “Targeting autophagy drug discovery: Targets, indications and development trends” (Eur J Med Chem, 2024)

Key:
[1] = biological target: T1, Patatin-like phospholipase domain-containing protein 2 (Homo sapiens, UniProt Q96AD5)
T1 sequence (Q96AD5 whole entry): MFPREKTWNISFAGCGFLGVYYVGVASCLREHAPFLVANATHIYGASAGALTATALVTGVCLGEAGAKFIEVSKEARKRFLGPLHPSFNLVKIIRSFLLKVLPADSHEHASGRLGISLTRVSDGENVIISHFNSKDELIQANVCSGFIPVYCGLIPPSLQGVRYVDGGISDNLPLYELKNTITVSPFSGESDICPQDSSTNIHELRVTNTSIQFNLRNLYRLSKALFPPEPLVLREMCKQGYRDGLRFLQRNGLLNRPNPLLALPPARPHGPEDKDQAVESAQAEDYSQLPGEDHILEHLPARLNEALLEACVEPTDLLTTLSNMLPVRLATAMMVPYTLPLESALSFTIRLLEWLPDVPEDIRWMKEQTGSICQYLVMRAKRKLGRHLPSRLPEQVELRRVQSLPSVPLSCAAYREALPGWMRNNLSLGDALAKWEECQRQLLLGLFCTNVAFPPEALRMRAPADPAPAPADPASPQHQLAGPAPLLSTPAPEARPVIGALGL
Description: Inhibition of ATGL ubiquitination in human HepG2 cells assessed as inhibition constant

[2] = biological target: Ubiquitin carboxyl-terminal hydrolase 10 (Homo sapiens, UniProt Q14694); test: Inhibition of USP10 (unknown origin)
Ubiquitin carboxyl-terminal hydrolase 10, sequence (Q14694 whole entry): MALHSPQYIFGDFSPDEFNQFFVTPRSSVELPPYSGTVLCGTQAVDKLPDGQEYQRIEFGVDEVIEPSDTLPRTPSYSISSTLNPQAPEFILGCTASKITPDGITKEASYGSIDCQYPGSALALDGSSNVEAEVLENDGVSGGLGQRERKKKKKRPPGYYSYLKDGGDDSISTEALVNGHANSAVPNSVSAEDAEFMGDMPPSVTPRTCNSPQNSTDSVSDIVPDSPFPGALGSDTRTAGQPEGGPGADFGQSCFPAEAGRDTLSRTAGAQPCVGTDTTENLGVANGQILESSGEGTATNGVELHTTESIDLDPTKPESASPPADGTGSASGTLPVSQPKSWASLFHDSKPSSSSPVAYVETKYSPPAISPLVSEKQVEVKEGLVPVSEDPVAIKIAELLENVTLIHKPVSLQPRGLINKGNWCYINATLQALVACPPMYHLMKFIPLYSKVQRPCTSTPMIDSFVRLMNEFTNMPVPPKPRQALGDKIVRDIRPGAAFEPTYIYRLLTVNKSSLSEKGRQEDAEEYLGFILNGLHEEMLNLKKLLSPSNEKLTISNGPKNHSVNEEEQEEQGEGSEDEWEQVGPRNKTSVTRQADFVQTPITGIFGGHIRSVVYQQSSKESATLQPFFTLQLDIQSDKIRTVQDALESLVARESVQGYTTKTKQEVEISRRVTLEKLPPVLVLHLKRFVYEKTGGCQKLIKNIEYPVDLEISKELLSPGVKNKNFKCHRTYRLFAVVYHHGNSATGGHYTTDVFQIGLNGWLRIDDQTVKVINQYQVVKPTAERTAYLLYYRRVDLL

[3] = biological target: T2, Ubiquitin carboxyl-terminal hydrolase 13 (Homo sapiens, UniProt Q92995)
T2 sequence (Q92995 whole entry): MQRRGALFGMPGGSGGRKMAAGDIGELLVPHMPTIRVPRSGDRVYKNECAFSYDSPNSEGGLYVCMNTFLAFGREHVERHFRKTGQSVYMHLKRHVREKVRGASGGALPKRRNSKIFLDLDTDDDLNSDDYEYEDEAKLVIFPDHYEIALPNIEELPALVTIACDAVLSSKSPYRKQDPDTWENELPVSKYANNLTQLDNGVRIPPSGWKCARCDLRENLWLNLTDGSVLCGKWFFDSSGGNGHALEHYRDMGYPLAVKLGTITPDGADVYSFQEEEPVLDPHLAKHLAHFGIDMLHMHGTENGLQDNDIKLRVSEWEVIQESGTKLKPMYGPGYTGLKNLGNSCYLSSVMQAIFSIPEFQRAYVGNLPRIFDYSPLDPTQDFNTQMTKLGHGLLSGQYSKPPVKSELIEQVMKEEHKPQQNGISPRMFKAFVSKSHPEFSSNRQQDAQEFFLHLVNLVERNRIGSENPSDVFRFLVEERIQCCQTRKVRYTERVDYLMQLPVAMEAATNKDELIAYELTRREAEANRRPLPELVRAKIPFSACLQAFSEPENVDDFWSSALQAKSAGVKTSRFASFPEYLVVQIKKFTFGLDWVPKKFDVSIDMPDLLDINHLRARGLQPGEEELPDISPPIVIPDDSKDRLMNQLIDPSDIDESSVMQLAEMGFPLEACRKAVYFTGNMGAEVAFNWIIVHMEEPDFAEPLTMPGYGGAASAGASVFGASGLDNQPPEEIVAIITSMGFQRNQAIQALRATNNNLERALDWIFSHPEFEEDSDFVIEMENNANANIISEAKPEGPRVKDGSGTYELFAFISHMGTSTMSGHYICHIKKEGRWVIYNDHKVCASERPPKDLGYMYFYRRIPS
Description: Inhibition of USP13 (unknown origin)

[4] = biological target: Ferritin heavy chain (Homo sapiens, UniProt P02794)
Ferritin heavy chain, sequence (P02794 whole entry): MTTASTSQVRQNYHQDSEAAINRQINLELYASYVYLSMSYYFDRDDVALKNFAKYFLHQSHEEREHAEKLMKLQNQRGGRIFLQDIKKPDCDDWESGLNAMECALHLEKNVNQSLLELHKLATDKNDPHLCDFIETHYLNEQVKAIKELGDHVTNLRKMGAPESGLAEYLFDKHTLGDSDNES
Description: Inhibition of FTH1 (unknown origin)

[5] = biological target: GABA-A receptor; anion channel
Description: Inhibition of GABA receptor (unknown origin)

[6] = tested on: A549; test: cells; conditions: Homo sapiens
Description: Antiproliferative activity against human A549 cells assessed as reduction in cell viability by MTT assay

SMILES: N[C@@H]1CCCN(c2c(/C=C3\SC(=O)NC3=O)cccc2-c2ccccc2)C1
- Ki [1]: 0.017 nM

SMILES: Fc1ccc(CNc2ncnc3ccc(F)cc23)cc1
- IC50 [2]: 580 nM
- IC50 [3]: 690 nM

SMILES: C=C1CC[C@H]2O[C@]2(C)CC[C@@H]2[C@@H]1CC2(C)C [(-)-CARYOPHYLLENE OXIDE]
- IC50 [4]: 1 nM

SMILES: C[C@H]1[C@H](C)CC[C@]2(C(=O)O)CC[C@]3(C)C(=CC[C@@H]4[C@@]5(C)C[C@@H](O)[C@H](O)[C@@](C)(CO)[C@@H]5CC[C@]43C)[C@H]12 [ASIATIC ACID]
- IC50 [5]: 5900 nM

SMILES: OC[C@H]1O[C@@H](c2ccc(Cl)c(Cc3ccc(O[C@H]4CCOC4)cc3)c2)[C@H](O)[C@@H](O)[C@@H]1O [EMPAGLIFLOZIN]
- EC50 [6]: 3 nM
